# pKi: −log10 of the molar value. Where two headings read alike, the source gives them in different places.
# Assays:
# [1] = system: TGF-β-stimulated SMAD3 phosphorylation in BEAS-2B cells; assay: Cellular ALK5 potency assay, inhibition of TGF-β stimulated pSMAD3 formation in BEAS-2B cells; assay type: cell-based; details: Homo sapiens, read-out: BEAS2B pIC50 (converted)
# Method: The potency of compounds of the present disclosure for inhibition of TGF-β-stimulated SMAD3 phosphorylation was measured in BEAS-2B cells, a human lung epithelial cell line. TGF-β signals through activin receptor-like kinase 5 (ALK5) immediately prior to SMAD3 phosphorylation.
# BEAS-2B cells were grown using 50% DMEM (Life Technologies) and 50% F-12 (Life Technologies) media, supplemented with 10% Fetal Bovine Serum (ATCC), 25 mM HEPES (Life Technologies), and 1× Pen-Strep (Life Technologies). Cells were cultured in a humidified incubator set at 37° C., 5% CO2, and trypsonized using 0.25% Trypsin with 0.5% polyvinylpyrrolidone (PVP).
# For the assay, BEAS-2B cells were seeded at 7,500 cells/well (25 μL/well) in a 384-well plate and cultured overnight. Before dosing, growth media was aspirated and the wells were rinsed with HBSS Buffer (HBSS with Calcium and Magnesium, Life Technologies) supplemented with 25 mM HEPES (Life Technologies) and 1% Bovine Serum Albumin (Roche). Compounds were serially diluted in DMSO, then further diluted with supplemented HBSS Buffer (50 μL/well) to create a compound plate 3× of the final assay concentration, at 0.3% DMSO. The diluted compounds were then added to the cells (8 μL/well) and incubated at 37° C., 5% CO2 for 1 hour. After the compound incubation, TGF-β (R&D Systems) reconstituted in supplemented HBSS Buffer was added to the cells ([…], final concentration 10 ng/mL) and incubated for a further 30 minutes, after which the cells were immediately lysed with AlphaLISA lysis buffer (PerkinElmer). AlphaLISA Acceptor and Detector beads (PerkinElmer) were added 2 hours apart, then incubated overnight to be read the next day. The potency of the compound was determined through analysis of dose-dependent quantified changes in pSMAD3 signal from baseline (non-compound treated TGF-β stimulated cells). Data are expressed as pIC50 (negative decadic logarithm IC50) values.
# [2] = target: T1, recombinant human ALK5 (TGF-βR1) protein (Homo sapiens, UniProt P36897); assay: Biochemical ALK5 (TGF-βR1) assay to measure pKi (LANCE Ultra ULight kinase assay); details: apparent pKi from pIC50 by Cheng-Prusoff; for Ki: read-out: ALK5 pKi (converted)
# T1 construct: purchased Life Technologies PR9075A
# T1 sequence (P36897 34-503): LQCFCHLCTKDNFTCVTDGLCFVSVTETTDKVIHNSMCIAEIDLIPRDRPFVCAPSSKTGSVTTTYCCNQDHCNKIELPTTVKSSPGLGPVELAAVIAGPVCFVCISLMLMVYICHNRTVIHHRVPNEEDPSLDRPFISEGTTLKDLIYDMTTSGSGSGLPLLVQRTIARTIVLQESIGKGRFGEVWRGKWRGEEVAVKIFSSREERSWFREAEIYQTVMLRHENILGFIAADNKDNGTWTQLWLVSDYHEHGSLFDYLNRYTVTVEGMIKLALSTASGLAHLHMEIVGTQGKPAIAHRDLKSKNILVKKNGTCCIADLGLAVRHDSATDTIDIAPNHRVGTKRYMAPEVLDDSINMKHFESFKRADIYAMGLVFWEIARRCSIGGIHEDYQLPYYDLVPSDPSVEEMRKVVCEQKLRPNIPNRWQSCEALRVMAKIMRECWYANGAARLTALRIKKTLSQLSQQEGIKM
# Method: The assays were performed in a 384-well plate (24 columns×16 wells/rows). An Echo® 550 Liquid Handler (Labcyte) was used to prepare various intermediate concentrations of compounds of the present disclosure in 100% DMSO. From the intermediate concentrations, a range of concentrations (from 10 μM to 25 pM corresponding to volumes up to 105 nL) were prepared and ejected into a final assay plate to be used to create individual dose response curves for each of the subject compounds. To a separate column within the assay plate, 105 nL of DMSO in each well was used to establish a maximum assay signal.
# With a multidrop dispenser, 8 μL of enzyme mixture (1.25× final) was added to each well. […] The plate was then sealed with an adhesive seal and allowed to equilibrate for 60 minutes at room temperature.
# Next, 2 μL of 125 μM ATP (5× final, 125 μM ATP prepared in assay buffer with 2 mM DTT) was added to the incubated mixtures, covered with a MicroClime® Environmental Lid (Product No. LLS-0310, Labcyte) and immediately transferred to 37° C. The reactions were allowed to proceed at 37° C. for 60 minutes before terminating with the addition of 10 μL of detection antibody (LANCE® (lanthanide chelate excite) Ultra Europium-anti-phospo-DNA Topoisomerase 2-alpha (Thr1342)) in detection mixture (12 mM EDTA, 4 nM detection antibody prepared in detection buffer (50 mM Tris-HCl, 150 mM NaCl, 0.5% BSA (Fraction V), pH 7.0)) at room temperature. The plate was then read on a Perkin Elmer EnVision Plate Reader using europium specific reader settings with excitation and emission wavelengths set to 320 or 340 nm and 665 nm, respectively.
# For dose-response analyses, percent inhibition versus compound concentrations were plotted, and pIC50 values were determined from a 4-parameter robust fit model with GraphPad Prism V5 Software (GraphPad Software, Inc., La Jolla, Calif.). This model obtains pIC50 values by fitting the sigmoidal dose-response (variable slope) equation to the data. Results were expressed as pIC50 (negative logarithm of IC50) and subsequently converted to pKi (negative logarithm of dissociate constant, K) using the Cheng-Prusoff equation. The higher the value of pKi (lower value of Ki), the greater the inhibition of ALK5 activity.
# [3] = inhibition of TGF-β stimulated pSMAD3 formation, BEAS-2B cells
Compound,"IC50 [1, 3]",Ki [2],IC50 ([1]; BEAS-2B),pKi ([2]; ALK5 pKi)
"Cc1cccc(-c2n[nH]cc2-c2ccc3ncc(N4CCCN(C)C(C)C4)cc3n2)n1 (racemic) [Compound 19, 2-[3-(6-methyl-2-pyridyl)-1H-pyrazol-4-yl]-7-[rac-(3S)-3,4-dimethyl-1,4-diazepan-1-yl]-1,5-naphthyridine]",25.1 to 158 nM,0.0398 to 0.316 nM,,
"Cc1cccc(-c2nnn(C)c2-c2ccc3ncc(N4CCC(N(C)C)C4)cc3c2)n1 (racemic) [Compound 25, rac-(3S)-N,N-dimethyl-1-[6-[3-methyl-5-(6-methyl-2-pyridyl)triazol-4-yl]-3-quinolyl]pyrrolidin-3-amine]",25.1 to 158 nM,0.0398 to 0.316 nM,,
"Cc1cccc(-c2n[nH]cc2-c2ccc3ncc(N4CC[C@H](N(C)C)C4)cc3c2)n1 (racemic) [Compound 70, rac-(3S)-N,N-dimethyl-1-[6-[3-(6-methyl-2-pyridyl)-1H-pyrazol-4-yl]-3-quinolyl]pyrrolidin-3-amine]",25.1 to 158 nM,< 0.0316 nM,,
"Cc1nc(-c2n[nH]cc2-c2ccc3ncc(-c4cnn([C@H]5CC[C@@H](N)C5)c4)cc3n2)ccc1F (racemic) [Compound 96, rac-(1R,3S)-3-[4-[6-[3-(5-fluoro-6-methyl-2-pyridyl)-1H-pyrazol-4-yl]-1,5-naphthyridin-3-yl]pyrazol-1-yl]cyclopentanamine]",25.1 to 158 nM,< 0.0316 nM,,
"Cc1cccc(-c2n[nH]cc2-c2ccc3ncc(N(C)C4CCN(C)C4)cc3n2)n1 (racemic) [Compound 140, N-methyl-6-[3-(6-methyl-2-pyridyl)-1H-pyrazol-4-yl]-N-[rac-(3R)-1-methylpyrrolidin-3-yl]-1,5-naphthyridin-3-amine]",25.1 to 158 nM,< 0.0316 nM,,
"Cc1cccc(-c2n[nH]cc2-c2ccc3ncc(C4=C[C@H]5CC[C@@H](C4)N5)cc3n2)n1 (racemic) [Compound 161, 2-[3-(6-methyl-2-pyridyl)-1H-pyrazol-4-yl]-7-[rac-(1R,5S)-8-azabicyclo[3.2.1]oct-2-en-3-yl]-1,5-naphthyridine]",,,25.1 to 158 nM,9.50 to 10.40
"Cc1cccc(-c2[nH]cnc2-c2ccc3ncc(NCCNC4CCCNC4)cc3c2)n1 (racemic) [Compound 217, N-[6-[5-(6-methyl-2-pyridyl)-1H-imidazol-4-yl]-3-quinolyl]-N′-[rac-(3R)-3-piperidyl]ethane-1,2-diamine]",200 to 1260 nM,0.0398 to 0.316 nM,,
"Cc1cccc(-c2n[nH]cc2-c2ccc3ncc(N(C)C4CCNC4)cc3n2)n1 (racemic) [Compound 242, N-methyl-6-[3-(6-methyl-2-pyridyl)-1H-pyrazol-4-yl]-N-[rac-(3R)-pyrrolidin-3-yl]-1,5-naphthyridin-3-amine]",25.1 to 158 nM,0.0398 to 0.316 nM,,
"Cc1nc(-c2n[nH]cc2-c2ccc3ncc(-c4cnn(C5CCC(N)CC5)c4)cc3n2)ccc1F (stereo not drawn) [Compound 459, 4-[4-[6-[3-(5-fluoro-6-methyl-2-pyridyl)-1H-pyrazol-4-yl]-1,5-naphthyridin-3-yl]pyrazol-1-yl]cyclohexanamine]",25.1 to 158 nM,,,
"CCOC(=O)[C@H](C)NP(=O)(OCc1cnc2ccc(-c3cn[nH]c3-c3cccc(C)n3)nc2c1)Oc1ccccc1 (stereo partly drawn) [Compound 464, ethyl (2S)-2-[[[6-[5-(6-methyl-2-pyridyl)-1H-pyrazol-4-yl]-1,5-naphthyridin-3-yl]methoxy-phenoxy-phosphoryl]amino]propanoate]",,0.0398 to 0.316 nM,,
"Cc1nc(-c2n[nH]cc2-c2ccc3ncc(-c4cnn(C5CC(N)C5)c4)cc3n2)ccc1F (stereo not drawn) [Compound 647, 3-[4-[6-[3-(5-fluoro-6-methyl-2-pyridyl)-1H-pyrazol-4-yl]-1,5-naphthyridin-3-yl]pyrazol-1-yl]cyclobutanamine]",25.1 to 158 nM,,,
"Cc1cccc(-c2[nH]cnc2-c2ccc3ncc(N4CCC(NCCSC(CCO)C(=O)O)C4)cc3c2)n1 (stereo not drawn) [Compound 720, 4-hydroxy-2-[2-[[1-[6-[5-(6-methyl-2-pyridyl)-1H-imidazol-4-yl]-3-quinolyl]pyrrolidin-3-yl]amino]ethylsulfanyl]butanoic acid]",,0.0398 to 0.316 nM,,
"Cc1cccc(-c2n[nH]cc2-c2ccc3nccc(C(=O)NCCCN4CCOCC4)c3n2)n1 [Compound 803, 6-[3-(6-methyl-2-pyridyl)-1H-pyrazol-4-yl]-N-(3-morpholinopropyl)-1,5-naphthyridine-4-carboxamide]",,0.398 to 3.16 nM,,
"Cc1cccc(-c2n[nH]cc2-c2ccc3nccc(C(=O)NCN4CCOCC4)c3n2)n1 [Compound 807, 6-[3-(6-methyl-2-pyridyl)-1H-pyrazol-4-yl]-N-(morpholinomethyl)-1,5-naphthyridine-4-carboxamide]",,0.398 to 3.16 nM,,
"Cc1cccc(-c2n[nH]cc2-c2ccc3nccc(C(=O)NCCN4CCN(C(C)C)CC4)c3n2)n1 [Compound 808, N-[2-(4-isopropylpiperazin-1-yl)ethyl]-6-[3-(6-methyl-2-pyridyl)-1H-pyrazol-4-yl]-1,5-naphthyridine-4-carboxamide]",,3.98 to 31.6 nM,,
"CNCCn1cc(-c2cnc3ccc(-c4c[nH]nc4-c4ccc(F)c(C)n4)nc3c2C)cn1 [Compound 870, 2-[4-[6-[3-(5-fluoro-6-methyl-2-pyridyl)-1H-pyrazol-4-yl]-4-methyl-1,5-naphthyridin-3-yl]pyrazol-1-yl]-N-methyl-ethanamine]",25.1 to 158 nM,,,
"Cc1cccc(-c2[nH]cnc2-c2ccc3ncc(-c4ncc(C(=O)OC5CCNCC5)s4)cc3c2)n1 [Compound 1022, piperidin-4-yl 2-(6-(5-(6-methylpyridin-2-yl)-1H-imidazol-4-yl)quinolin-3-yl)thiazole-5-carboxylate]",,0.0398 to 0.316 nM,,
"Cc1cccc(-c2[nH]ncc2-c2ccc3nccc(C(=O)O[C@H]4CC[C@](C)(N)CC4)c3c2)n1 [Compound 1135, (4-amino-4-methyl-cyclohexyl) 6-[5-(6-methyl-2-pyridyl)-1H-pyrazol-4-yl]quinoline-4-carboxylate]",,3.98 to 31.6 nM,,
"Cc1cccc(-c2[nH]cnc2-c2ccc3ncc(-c4csc(C(=O)OC[C@H]5CC[C@H](N)CC5)c4)cc3c2)n1 [Compound 1245, (4-aminocyclohexyl)methyl 4-[6-[5-(6-methyl-2-pyridyl)-1H-imidazol-4-yl]-3-quinolyl]thiophene-2-carboxylate]",,0.0398 to 0.316 nM,,

# Source: patent US11590116B2 (THERAVANCE BIOPHARMA R&D IP, LLC, priority 2019, dated 2023)
